The source of these data is patent EP0657176B1, “Composition containing a water-insoluble or slightly water-soluble compound with enhanced water-solubility” (priority 1993, dated 1995).

Series [1] in a line: Water-solubility of acetohexamide alone or combined with β-CyD-G2-COONa or β-CyD (Example 13). In kind it is physicochemical. Particulars: with β-CyD-G2-COONa or β-CyD 1:1 (molar ratio), as Example 12, powder 100 mg + water 1 ml; alone: 25 °C, 6 hours; ultraviolet spectrophotometer; read-out: solubilities of acetohexamide.
Procedure: Separately, powder was obtained by the same operation except using β-CyD instead of the above β-CyD-G2-COONa. Water (1 ml) was added to each powder (100 mg) thus obtained to dissolve it. On the other hand, acetohexamide alone was added to water, and the mixture was vigorously shaken at 25 °C for 6 hours and filtered through a membrane filter of 0.22 µm. The acetohexamide in the above filtrate was determined with an ultraviolet spectrophotometer (Shimadzu Corp., UV-240).
Series [2] in a line: Water-solubility of the antifungal agent alone or combined with β-CyD-G2-COONa or β-CyD (Example 4). The following applies: triazolone antifungal agent in water; with β-CyD-G2-COONa or β-CyD 1:2 (molar ratio), lyophilized powder; as Example 1; read-out: solubilities of the antifungal agent. In kind it is physicochemical. How it is done: (§1) The antineoplastic agent 6-O-(N-chloroacetylcarbamoyl)fumagillol (100 mg) was dissolved in ethanol (4 ml). […] The aqueous solution was added to the ethanol solution and mixed with it with stirring. The resulting solution was lyophilized in vacuo to give powder. Water (1 ml) was added to the powder (100 mg) to obtain a homogeneous aqueous solution, i.e., a composition of the present invention.
(§2) On the other hand, the antineoplastic agent alone was added to water, and the mixture was vigorously shaken at 25 °C for 4 hours and filtered through a membrane filter of 0.22 µm.
(§3) The antineoplastic agent in the above homogeneous aqueous solution and filtrate was determined by high performance liquid chromatography (HPLC). As a result, the solubilities in Table 1 were obtained.
Likewise, lyophilized powder was obtained from the antifungal agent and β-cyclodextrin (β-CyD)(the antifungal agent : β-CyD = 1:2 (molar ratio)). […]

Series [3] can be described thus: Water-solubility of the cephalosporin antibiotic alone or combined with β-CyD-G2-COONa or β-CyD (Example 3, HPLC). In kind it is physicochemical. Particulars: cephalosporin antibiotic (free form) in water, with β-CyD-G2-COONa or β-CyD 1:2 (mol ratio), lyophilized powder 100 mg + water 1 ml, alone: shaken at 25 °C for 8 hours, read-out: solubilities of the antibiotic. Here is the method: The aqueous solution was added to the ethanol solution and mixed with it with stirring. The resulting solution was lyophilized in vacuo to give powder. Water (1 ml) was added to the powder (100 mg) to obtain a homogeneous aqueous solution, i.e., a composition of the present invention. On the other hand, the antibiotic alone was added to water, and the mixture was vigorously shaken at 25 °C for 8 hours and filtered through a membrane filter of 0.22 µm.
The antibiotic in the above homogeneous aqueous solution and filtrate was determined by high performance liquid chromatography (HPLC). As a result, the solubilities in Table 3 were obtained.

A short description of series [4]: Water-solubility of the antineoplastic agent alone or combined with β-CyD-G2-COONa or β-CyD (Example 1, HPLC). In kind it is physicochemical. The following applies: 6-O-(N-chloroacetylcarbamoyl)fumagillol in water, with β-CyD-G2-COONa or β-CyD 1:2 (mol ratio), lyophilized powder 100 mg + water 1 ml, alone: shaken at 25 °C for 4 hours, 0.22 µm filter, read-out: solubilities of the antineoplastic agent. How it is done:
as §1, §2, §3

The nature of series [5]: Water-solubility of the antineoplastic agent alone or combined with α-CyD-G2-COONa or α-CyD (Example 2, HPLC). The class given is physicochemical. Particulars: 6-O-(N-chloroacetylcarbamoyl)fumagillol in water, with α-CyD-G2-COONa or α-CyD 1:2 (mol ratio), lyophilized powder 100 mg + water 1 ml, alone: shaken at 25 °C for 4 hours, 0.22 µm filter, read-out: solubilities of the antineoplastic agent. Here is the method:
The aqueous solution was added to the ethanol solution and mixed with it with stirring. The resulting solution was lyophilized in vacuo to give powder. Water (1 ml) was added to the powder (100 mg) to obtain a homogeneous aqueous solution, i.e., a composition of the present invention. On the other hand, the antineoplastic agent alone was added to water, and the mixture was vigorously shaken at 25 °C for 4 hours and filtered through a membrane filter of 0.22 µm.
The antineoplastic agent in the above homogeneous aqueous solution and filtrate was determined by high performance liquid chromatography (HPLC). As a result, the solubilities in Table 2 were obtained.

The nature of series [6]: Water-solubility of clofibrate alone or combined with β-CyD-G2-COONa or β-CyD (Example 5). In kind it is physicochemical. Particulars: in water; with β-CyD-G2-COONa or β-CyD 1:2 (molar ratio), lyophilized powder; as Example 1; read-out: solubilities of clofibrate. How it is done: as §1, §2, §3
Likewise, lyophilized powder was obtained from clofibrate and β-cyclodextrin (β-CyD) (clofibrate : β-CyD = 1:2 (molar ratio)). […]

Series [7] is described as follows: Water-solubility of flufenamic acid alone or combined with β-CyD-G2-COONa or β-CyD (Example 7). In kind it is physicochemical. The following applies: flufenamic acid about 6 mg; as Example 6 (cyclodextrin 75 mg in water 5 ml, 25°C, 8 hours).
Procedure: (§4) Sodium6-O-cyclomaltoheptaosyl-(6→1)-O-α-D-glucosyl-(4→1)-O-α-D-glucuronate (β-CyD-G2-COONa)(75 mg) was dissolved in water (5 ml).
Series [8] is described as follows: Water-solubility of griseofulvin alone or combined with β-CyD-G2-COONa or β-CyD (Example 12, milling, spectrophotometry). The class given is physicochemical. Particulars: with β-CyD-G2-COONa or β-CyD 1:1 (molar ratio), shaken in tumbler pulverizer with a small amount of water, lyophilized, powder 100 mg + water 1 ml, alone: 25°C, 6 hours, read-out: solubilities of griseofulvin.
Procedure: Water (1 ml) was added to each powder (100 mg) thus obtained to obtain an aqueous solution thereof. On the other hand, griseofulvin alone was added to water, and the mixture was vigorously shaken at 25°C for 6 hours and filtered through a membrane filter of 0.22 µm.
The griseofulvin in the above filtrate was determined by spectrophotometry (Shimadzu Corp., UV-240 spectrophotometer).

A short description of series [9]: Water-solubility of indomethacin alone or combined with β-CyD-G2-COONa or β-CyD (Example 11). An excerpt: The results are in Table 11. Table 11
The nature of series [10]: Water-solubility of phenytoin alone or combined with β-CyD-G2-COONa or β-CyD (Example 9).
Procedure: as §4
Series [11] can be described thus: Water-solubility of testosterone alone or combined with β-CyD-G2-COONa or β-CyD (Example 8).
Procedure: as §4
Series [12] is described as follows: Water-solubility of testosterone alone or combined with α-CyD-G2-COONa or α-CyD (Example 14). In kind it is physicochemical. The following applies: testosterone about 4 mg, α-CyD-G2-COONa or α-CyD 75 mg in water 5 ml, shaken at 25°C for 8 hours; ultraviolet spectrophotometer; read-out: solubilities of testosterone. How it is done:
The same operations were carried out using α-cyclodextrin (α-CyD) instead of α-CyD-G2-COONa or using testosterone alone. The concentration of testosterone dissolved in the resulting filtrate was determined with an ultraviolet spectrophotometer (Shimadzu Corp., UV-240).

Series [13] in a line: Water-solubility of testosterone alone or combined with β-CyD-CH2CH(OH)-COONa or β-CyD (Example 15). The following applies: testosterone about 4 mg, β-CyD-CH2CH(OH)-COONa or β-CyD 75 mg in water 5 ml, shaken at 25°C for 8 hours; ultraviolet spectrophotometer; read-out: solubilities of testosterone. The class given is physicochemical. Here is the method:
The same operations were carried out using β-CyD instead of β-CyD-CH2CH(OH)-COONa or using testosterone alone. The concentration of testosterone dissolved in the resulting filtrate was determined with an ultraviolet spectrophotometer (Shimadzu Corp., UV-240).

For series [14] the following is noted: water, 8 h. An excerpt: The results are in Table 10. Table 10

For `CC(=O)c1ccc(S(=O)(=O)NC(=O)NC2CCCCC2)cc1` [Acetohexamide alone, acetohexamide], the solubility in [1] is 28.1 µg/mL.
`C[C@@H](n1ncn(-c2ccc(OCC(F)(F)C(F)F)cc2)c1=O)[C@](O)(Cn1cncn1)c1ccc(F)cc1F` [Antifungal agent alone, 2-[(1R,2R)-2-(2,4-difluorophenyl)-2-hydroxy-1-methyl-3-(1H-1,2,4-triazol-1-yl)propyl]-4-[4-(2,2,3,3-tetrafluoropropoxy)phenyl]-3-(2H,4H)-1,2,4-triazolone]: in series [2], the solubility was 5 µg/mL.
Take `COC1C(OC(=O)NC(=O)CCl)CCC2(CO2)C1C1(C)OC1CC=C(C)C` (centres unmarked) [Antineoplastic agent alone]: the solubility is 2500 µg/mL in series [3], 1800 µg/mL in [4] and 1800 µg/mL in series [5].
In the case of `CCOC(=O)C(C)(C)Oc1ccc(Cl)cc1` [Clofibrate agent alone, clofibrate], in [6], the solubility is 82 µg/mL.
As to `O=C(O)c1ccccc1Nc1cccc(C(F)(F)F)c1` [Flufenamic acid alone, flufenamic acid], the “solubilities of flufenamic acid” value in series [7] stood at 0.074 mg/mL.
With `COC1=CC(=O)C[C@@H](C)[C@]12Oc1c(Cl)c(OC)cc(OC)c1C2=O` [Griseofulvin alone, griseofulvin], the solubility in [8] came to 23 µg/mL.
Consider `COc1ccc2c(c1)c(CC(=O)O)c(C)n2C(=O)c1ccc(Cl)cc1` [Indomethacin alone, indomethacin], for which the solubility at 8 h in series [9] came to 23 µg/mL.
On to `O=C1NC(=O)C(c2ccccc2)(c2ccccc2)N1` [Phenytoin alone, phenytoin], for which the solubility at 8 h in [10] stood at 27 µg/mL.
As for `C[C@]12CC[C@H]3[C@@H](CCC4=CC(=O)CC[C@@]43C)[C@@H]1CC[C@@H]2O` [Testosterone alone, testosterone], the solubility at 8 h in series [11], in [12] and in series [13] was 29 µg/mL in each case.
Regarding vitamin K2 [Vitamin K2 alone], in [14], the “solubilities of vitamin K2” value stood at 0.0005 µg/mL.
